Assay results: ChEMBL document CHEMBL1255206, “Design and synthesis of a new class of malonyl-CoA decarboxylase inhibitors with anti-obesity and anti-diabetic activities” (Bioorg Med Chem Lett, 2010)
Blank lines part the entries; values can stand above or below the molecule they belong to.

Assays:
[1] = molecular target: T1, Malonyl-CoA decarboxylase, mitochondrial (Homo sapiens, UniProt O95822); test: Inhibition of human MCD
T1 sequence (O95822 whole entry): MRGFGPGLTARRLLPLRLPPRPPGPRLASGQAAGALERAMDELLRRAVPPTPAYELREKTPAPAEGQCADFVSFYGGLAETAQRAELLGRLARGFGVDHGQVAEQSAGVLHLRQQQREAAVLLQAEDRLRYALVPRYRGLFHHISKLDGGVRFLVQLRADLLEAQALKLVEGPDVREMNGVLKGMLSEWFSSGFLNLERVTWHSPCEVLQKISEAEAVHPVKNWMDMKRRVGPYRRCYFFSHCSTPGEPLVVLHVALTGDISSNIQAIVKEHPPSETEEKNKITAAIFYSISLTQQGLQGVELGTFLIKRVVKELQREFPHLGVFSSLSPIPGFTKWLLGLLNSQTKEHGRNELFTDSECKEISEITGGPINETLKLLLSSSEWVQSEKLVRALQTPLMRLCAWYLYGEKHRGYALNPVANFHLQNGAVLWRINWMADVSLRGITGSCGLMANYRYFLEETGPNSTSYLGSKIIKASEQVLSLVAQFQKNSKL

[2] = molecular target: T2, Malonyl-CoA decarboxylase, mitochondrial (Mus musculus, UniProt Q99J39); test: Inhibition of MCD in mouse hepatocytes by whole cell assay; type: cell-based, Hepatocyte
T2 sequence (Q99J39 whole entry): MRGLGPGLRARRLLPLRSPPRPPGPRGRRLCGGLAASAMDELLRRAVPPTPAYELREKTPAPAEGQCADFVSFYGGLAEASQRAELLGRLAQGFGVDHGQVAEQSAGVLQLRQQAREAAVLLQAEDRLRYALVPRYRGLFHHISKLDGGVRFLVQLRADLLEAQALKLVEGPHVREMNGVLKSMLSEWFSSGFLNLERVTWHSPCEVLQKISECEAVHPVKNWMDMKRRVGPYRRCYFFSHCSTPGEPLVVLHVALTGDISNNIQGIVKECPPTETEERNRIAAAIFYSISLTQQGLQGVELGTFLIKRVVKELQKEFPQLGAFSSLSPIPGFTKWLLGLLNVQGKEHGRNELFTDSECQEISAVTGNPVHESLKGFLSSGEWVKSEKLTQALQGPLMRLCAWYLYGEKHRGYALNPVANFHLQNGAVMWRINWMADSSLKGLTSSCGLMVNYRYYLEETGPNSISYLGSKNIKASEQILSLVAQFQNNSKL

Mus musculus [3] = test: Antiobesity activity in C57B6N mouse assessed as change in body weight at 100 mg/kg, po; type: functional
Mus musculus [4] = test: Antiobesity activity in C57B6N mouse assessed as change in chronic food intake at 100 mg/kg, po; type: functional
Mus musculus [5] = test: Antiobesity activity in C57B6N mouse assessed as change in hyphalamic malonyl-coA level at 100 mg/kg, po; type: functional
Mus musculus [6] = test: Antiobesity activity in C57B6N mouse assessed as change in body weight at 30 mg/kg, po; type: functional
Mus musculus [7] = test: Antiobesity activity in C57B6N mouse assessed as change in hyphalamic malonyl-coA level at 30 mg/kg, po; type: functional
Mus musculus [8] = test: Antiobesity activity in C57B6N mouse assessed as change in chronic food intake at 30 mg/kg, po; type: functional
Mus musculus [9] = test: Antidiabetic activity in C57B6N mouse assessed as blood glucose correction at 30 mg/kg, po; type: functional
Mus musculus [10] = test: Antidiabetic activity in C57B6N mouse assessed as decrease in beta-hydroxybutyrate at 30 mg/kg, po; type: functional; set-up: scale not given: the % may be the effect or the level left
Mus musculus [11] = test: Antidiabetic activity in C57B6N mouse assessed as decrease in beta-hydroxybutyrate at 3 mg/kg, po; type: functional; set-up: scale not given: the % may be the effect or the level left
Mus musculus [12] = test: Antidiabetic activity in C57B6N mouse assessed as blood glucose correction at 3 mg/kg, po; type: functional
Mus musculus [13] = test: Antidiabetic activity in C57B6N mouse assessed as decrease in beta-hydroxybutyrate at 10 mg/kg, po; type: functional; set-up: scale not given: the % may be the effect or the level left
Mus musculus [14] = test: Antidiabetic activity in C57B6N mouse assessed as blood glucose correction at 10 mg/kg, po; type: functional

EC50 [2]: > 20000 nM
Compound: OC(c1cnc(C2CCN(c3ccc(F)cc3)CC2)s1)(C(F)(F)F)C(F)(F)F

EC50 [2]: 2000 nM
Compound: NC(=O)c1cccc(N2CCC(c3ncc(C(O)(C(F)(F)F)C(F)(F)F)s3)CC2)c1

EC50 [2]: 640 nM
Compound: CNC(=O)C1(c2ccccc2)CCN(c2ncc(C(O)(C(F)(F)F)C(F)(F)F)s2)CC1

EC50 [2]: 150 nM
Compound: NC(=O)C1(c2cccc(C(=O)O)c2)CCN(c2ncc(C(O)(C(F)(F)F)C(F)(F)F)s2)CC1

EC50 [2]: 630 nM
Compound: CNC(=O)c1cccc(N2CCN(c3ncc(C(O)(C(F)(F)F)C(F)(F)F)s3)CC2)c1
Activity (Mus musculus [3]): 20%
Activity (Mus musculus [4]): -12.4%
Activity (Mus musculus [5]): 186%
Activity (Mus musculus [6]): -2.1%
Activity (Mus musculus [7]): 65%
Activity (Mus musculus [8]): -1.3%
Activity (Mus musculus [9]): 30%
Activity (Mus musculus [10]): 65%

Continued, molecule first:

Compound: Cc1cc(C(O)(C(F)(F)F)C(F)(F)F)ccc1C(Cc1cc[n+]([O-])cc1)c1ccc(OC(F)F)c(OC(F)F)c1 (configuration not stated)
IC50 [1]: 13.3 nM

Compound: O=C(O)c1cccc(C2CCN(c3ncc(C(O)(C(F)(F)F)C(F)(F)F)s3)CC2)c1
EC50 [2]: 230 nM

Compound: NC(=O)c1cccc(C2CCN(c3ncc(C(O)(C(F)(F)F)C(F)(F)F)s3)CC2)c1
EC50 [2]: 950 nM

Compound: NC(=O)C1(c2ccccc2)CCN(c2ncc(C(O)(C(F)(F)F)C(F)(F)F)s2)CC1
Activity (Mus musculus [3]): 14.3%
Activity (Mus musculus [4]): -5.7%
Activity (Mus musculus [5]): 70%
Activity (Mus musculus [6]): -5.5%
Activity (Mus musculus [7]): 29%
Activity (Mus musculus [8]): -2.4%
Activity (Mus musculus [9]): 41%
EC50 [2]: 1100 nM
Activity (Mus musculus [10]): 60%

Compound: OC(c1cnc(N2CCN(c3ccc(F)c(F)c3)CC2)s1)(C(F)(F)F)C(F)(F)F
EC50 [2]: > 20000 nM

Compound: CS(=O)(=O)NC(=O)C1(c2ccccc2)CCN(c2ncc(C(O)(C(F)(F)F)C(F)(F)F)s2)CC1
Activity (Mus musculus [11]): -12%
Activity (Mus musculus [12]): 28%
Activity (Mus musculus [13]): 53%
Activity (Mus musculus [14]): 53%
Activity (Mus musculus [9]): 48%
EC50 [2]: 500 nM
Activity (Mus musculus [10]): 60%

Compound: NC(=O)c1cccc(N2CCN(c3ncc(C(O)(C(F)(F)F)C(F)(F)F)s3)CC2)c1
Activity (Mus musculus [3]): -2.2%
Activity (Mus musculus [4]): 0.8%
Activity (Mus musculus [5]): 36%
Activity (Mus musculus [6]): -3.3%
Activity (Mus musculus [7]): 50%
Activity (Mus musculus [8]): 0.8%
Activity (Mus musculus [9]): 32%
EC50 [2]: 1400 nM
Activity (Mus musculus [10]): 78%
